pIC50, pKi: −log10 of the molar value.
Columns and labels:
[1] = molecular target: T1, Adenosine receptor A1 (Homo sapiens, UniProt P30542); assay: Displacement of [3H]-CCPA from human A1 receptor stably expressed in CHO cell membranes by radioligand competitive binding assay; parameters: species or system Cell membrane
T1 sequence (P30542 whole entry): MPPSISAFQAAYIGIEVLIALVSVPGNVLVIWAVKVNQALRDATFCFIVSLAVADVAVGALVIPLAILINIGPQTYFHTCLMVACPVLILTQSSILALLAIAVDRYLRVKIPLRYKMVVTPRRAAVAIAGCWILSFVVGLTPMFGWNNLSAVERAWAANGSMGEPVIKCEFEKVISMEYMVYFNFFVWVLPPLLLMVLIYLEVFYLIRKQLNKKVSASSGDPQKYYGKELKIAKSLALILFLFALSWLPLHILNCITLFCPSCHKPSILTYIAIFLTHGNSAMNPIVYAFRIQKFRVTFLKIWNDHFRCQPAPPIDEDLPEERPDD

[2] = molecular target: Adenosine receptor A2a (Homo sapiens, UniProt P29274); assay: Displacement of [3H]-NECA from human A2A receptor stably expressed in CHO cell membranes by radioligand competitive binding assay; parameters: species or system Cell membrane
[3] = molecular target: T2, Adenosine receptor A3 (Homo sapiens, UniProt P0DMS8); assay: Displacement of [3H]-HEMADO from human A3 receptor stably expressed in CHO cell membranes by radioligand competitive binding assay; parameters: species or system Cell membrane
T2 sequence (P0DMS8 whole entry): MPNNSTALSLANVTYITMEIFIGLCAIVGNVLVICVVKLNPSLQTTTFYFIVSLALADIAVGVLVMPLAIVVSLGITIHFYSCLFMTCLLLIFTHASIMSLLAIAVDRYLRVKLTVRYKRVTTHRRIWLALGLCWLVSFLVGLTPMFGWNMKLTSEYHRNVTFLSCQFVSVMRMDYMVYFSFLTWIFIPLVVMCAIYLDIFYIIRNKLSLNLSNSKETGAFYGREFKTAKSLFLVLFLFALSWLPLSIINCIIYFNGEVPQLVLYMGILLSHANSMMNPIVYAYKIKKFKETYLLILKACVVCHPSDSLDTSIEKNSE

[4] = molecular target: Carbonic anhydrase 1 (Homo sapiens, UniProt P00915); assay: Inhibition of human CA1 incubated for 15 mins by stopped- flow CO2 hydrase assay method
[5] = molecular target: Carbonic anhydrase 2 (Homo sapiens, UniProt P00918); assay: Inhibition of human CA2 incubated for 15 mins by stopped- flow CO2 hydrase assay method
[6] = molecular target: Carbonic anhydrase 9 (Homo sapiens, UniProt Q16790); assay: Inhibition of human CA9 incubated for 15 mins by stopped- flow CO2 hydrase assay method
[7] = molecular target: Carbonic anhydrase 12 (Homo sapiens, UniProt O43570); assay: Inhibition of human CA12 incubated for 15 mins by stopped- flow CO2 hydrase assay method
[8] = molecular target: T3, Adenosine receptor A2b (Homo sapiens, UniProt P29275); assay: Antagonist activity at human A2B receptor expressed in CHO cell membrane assessed as reduction in NECA-[…] level by GloSensor CAMP assay; type: cell membranes
T3 sequence (P29275 whole entry): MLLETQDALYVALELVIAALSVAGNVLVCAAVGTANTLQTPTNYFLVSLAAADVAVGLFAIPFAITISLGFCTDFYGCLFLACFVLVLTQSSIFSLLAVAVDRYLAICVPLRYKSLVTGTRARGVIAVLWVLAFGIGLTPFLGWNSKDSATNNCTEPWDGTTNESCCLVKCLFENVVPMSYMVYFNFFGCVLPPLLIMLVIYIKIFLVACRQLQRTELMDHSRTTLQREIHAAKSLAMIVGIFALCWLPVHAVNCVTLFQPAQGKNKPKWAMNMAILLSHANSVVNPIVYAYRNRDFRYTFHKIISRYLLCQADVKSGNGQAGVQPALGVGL

Chain of Carbonic anhydrase 1 (P00915 whole entry): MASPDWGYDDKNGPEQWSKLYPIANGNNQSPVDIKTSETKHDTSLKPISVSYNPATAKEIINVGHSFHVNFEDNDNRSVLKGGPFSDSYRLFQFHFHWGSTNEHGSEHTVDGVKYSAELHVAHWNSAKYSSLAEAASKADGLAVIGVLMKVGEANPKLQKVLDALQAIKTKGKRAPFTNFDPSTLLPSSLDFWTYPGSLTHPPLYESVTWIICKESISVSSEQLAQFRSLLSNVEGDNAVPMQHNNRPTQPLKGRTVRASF
Chain of Carbonic anhydrase 12 (O43570 whole entry): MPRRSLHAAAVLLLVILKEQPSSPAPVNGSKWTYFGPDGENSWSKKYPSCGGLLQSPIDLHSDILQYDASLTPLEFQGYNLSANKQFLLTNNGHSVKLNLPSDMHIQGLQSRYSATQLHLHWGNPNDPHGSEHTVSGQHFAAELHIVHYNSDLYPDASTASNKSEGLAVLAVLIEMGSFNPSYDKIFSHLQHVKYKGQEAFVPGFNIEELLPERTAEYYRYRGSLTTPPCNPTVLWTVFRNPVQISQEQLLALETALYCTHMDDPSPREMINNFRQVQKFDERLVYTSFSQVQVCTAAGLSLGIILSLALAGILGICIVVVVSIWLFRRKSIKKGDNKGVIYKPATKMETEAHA
Chain of Adenosine receptor A2a (P29274 whole entry): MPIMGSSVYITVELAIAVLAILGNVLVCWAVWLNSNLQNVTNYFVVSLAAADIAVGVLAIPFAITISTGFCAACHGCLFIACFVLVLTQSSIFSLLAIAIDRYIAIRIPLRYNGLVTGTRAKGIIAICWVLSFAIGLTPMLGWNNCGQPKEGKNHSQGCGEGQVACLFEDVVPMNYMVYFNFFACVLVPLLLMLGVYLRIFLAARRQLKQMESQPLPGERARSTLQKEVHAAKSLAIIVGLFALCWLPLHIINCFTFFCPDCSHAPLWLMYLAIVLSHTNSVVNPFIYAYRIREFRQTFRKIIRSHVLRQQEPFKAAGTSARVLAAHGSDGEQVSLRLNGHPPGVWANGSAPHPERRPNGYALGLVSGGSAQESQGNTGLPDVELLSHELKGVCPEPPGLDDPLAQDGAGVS

Structure (SMILES) | pKi [1] | pKi [2] | pKi [3] | pKi [4] | pKi [5] | pKi [6] | pKi [7] | pIC50 [8]
Nc1nc(-c2ccc(OCCNC(=O)c3ccc(S(N)(=O)=O)cc3)cc2)cn2c(=O)n(-c3ccccc3)nc12 | 6.38 | 8.17 | 5.18 | 6.03 | 6.74 | 5.23 | 6.28 | < 4.52
CN(C)c1nc(-c2ccc(S(N)(=O)=O)cc2)cn2c(=O)n(-c3ccccc3)nc12 | 6.36 | 5.41 | 4.71 | 5.68 | 6.33 | 5.17 | 6.45 | < 4.52
Nc1nc(-c2ccc(OCCNCCc3ccc(S(N)(=O)=O)cc3)cc2)cn2c(=O)n(-c3ccccc3)nc12 | 6.55 | 7.06 | 5.15 | 6.01 | 6.03 | 5.02 | 6.10 | < 4.52
Nc1nc(-c2ccc(NC(=O)CCNCc3ccc(S(N)(=O)=O)cc3)cc2)cn2c(=O)n(-c3ccccc3)nc12 | 6.08 | 7.02 | < 4.52 | 5.05 | 5.17 | 6.50 | 7.38 | < 4.52
Nc1nc(-c2ccc(NC(=O)c3cccc(S(N)(=O)=O)c3)cc2)cn2c(=O)n(-c3ccccc3)nc12 | 5.92 | 7.87 | < 4.52 | 5.64 | 6.44 | 6.09 | 6.52 | < 4.52
Nc1nc(-c2ccc(NC(=O)c3ccc(C(=O)O)cc3)cc2)cn2c(=O)n(-c3ccccc3)nc12 | 5.63 | 7.09 | < 4.52 | < 4.00 | < 4.00 | < 4.00 | < 4.00 | < 4.52
Nc1nc(-c2ccc(NC(=O)CCNCCc3ccc(S(N)(=O)=O)cc3)cc2)cn2c(=O)n(-c3ccccc3)nc12 | 5.99 | 7.97 | 5.23 | 5.06 | 6.28 | 6.96 | 9.58 | < 4.52
Nc1nc(-c2ccc(NC(=O)CCNC(=O)c3ccc(S(N)(=O)=O)cc3)cc2)cn2c(=O)n(-c3ccccc3)nc12 | 5.97 |  | < 4.52 | 7.29 | 8.07 | 8.30 | 7.57 | < 4.52
Nc1nc(-c2ccc(NC(=O)c3ccc(S(N)(=O)=O)cc3)cc2)cn2c(=O)n(-c3ccccc3)nc12 | 5.38 |  | < 4.52 | 5.08 | 7.34 | 6.33 | 8.22 | < 4.52
Nc1nc(-c2ccc(NC(=O)c3ccc(C(=O)NO)cc3)cc2)cn2c(=O)n(-c3ccccc3)nc12 | 6.40 | 7.44 | 6.26 | < 4.00 | 4.20 | < 4.00 | < 4.00 | < 4.52
Nc1nc(-c2ccc(NC(=O)CCNC(=O)c3cccc(S(N)(=O)=O)c3)cc2)cn2c(=O)n(-c3ccccc3)nc12 | 6.38 | 8.04 | < 4.52 | 5.14 | 6.47 | 5.16 | 6.08 | < 4.52
Nc1nc(-c2ccccc2O)cn2c(=O)n(-c3ccccc3)nc12 |  |  |  | < 4.00 | 4.72 | < 4.00 | < 4.00 | < 4.52

Further lines, results first:

pKi [1] | pKi [2] | pKi [3] | pKi [4] | pKi [5] | pKi [6] | pKi [7] | pIC50 [8] | Structure (SMILES)
6.26 | 8.05 | 5.90 | < 4.00 | 4.50 | 4.35 | < 4.00 | < 4.52 | Nc1nc(-c2ccc(NC(=O)c3ccc(O)c(O)c3)cc2)cn2c(=O)n(-c3ccccc3)nc12
 |  |  | < 4.00 | 4.03 | < 4.00 | < 4.00 | < 4.52 | Nc1nc(-c2cccc(O)c2)cn2c(=O)n(-c3ccccc3)nc12
6.38 | 9.15 | 6.55 | < 4.00 | < 4.00 | < 4.00 | < 4.00 | < 4.52 | COc1ccc(C(=O)Nc2ccc(-c3cn4c(=O)n(-c5ccccc5)nc4c(N)n3)cc2)cc1
5.13 | 5.87 | < 4.52 | < 4.00 | < 4.00 | < 4.00 | < 4.00 | < 4.52 | CCOC(=O)c1ccc(C(=O)Nc2ccc(-c3cn4c(=O)n(-c5ccccc5)nc4c(N)n3)cc2)cc1
5.64 | 6.24 | 5.16 | < 4.00 | < 4.00 | < 4.00 | < 4.00 | < 4.52 | Nc1nc(-c2ccc(NC(=O)CCC(=O)O)cc2)cn2c(=O)n(-c3ccccc3)nc12
 |  |  | < 4.00 | < 4.00 | < 4.00 | < 4.00 | < 4.52 | Nc1nc(-c2ccc(O)cc2)cn2c(=O)n(-c3ccccc3)nc12
6.71 | 7.39 | 5.97 | < 4.00 | 4.33 | < 4.00 | 5.36 | < 4.52 | Nc1nc(-c2ccc(NC(=O)c3ccc(O)cc3)cc2)cn2c(=O)n(-c3ccccc3)nc12
7.06 | 7.55 | < 4.52 | 6.24 | 6.05 | 5.22 | 6.20 | < 4.52 | Nc1nc(-c2ccc(NCc3ccc(S(N)(=O)=O)cc3)cc2)cn2c(=O)n(-c3ccccc3)nc12
6.88 | 7.59 | 5.17 | 6.23 | 6.61 | 5.02 | 7.59 | < 4.52 | Nc1nc(-c2ccc(NCC(=O)c3ccc(S(N)(=O)=O)cc3)cc2)cn2c(=O)n(-c3ccccc3)nc12
6.11 | 5.20 | < 4.52 | < 4.00 | < 4.00 | < 4.00 | < 4.00 | < 4.52 | CCOC(=O)CNc1ccc(-c2cn3c(=O)n(-c4ccccc4)nc3c(N)n2)cc1
7.01 | 7.69 | < 4.52 | < 4.00 | < 4.00 | < 4.00 | < 4.00 | < 4.52 | COc1ccc(C(=O)Nc2ccc(-c3cn4c(=O)n(-c5ccccc5)nc4c(N)n3)cc2)cc1OC
6.69 | 6.07 | 4.83 | 5.10 | 6.15 | 5.05 | 6.22 | < 4.52 | Nc1nc(-c2ccc(S(N)(=O)=O)cc2)cn2c(=O)n(-c3ccccc3)nc12

Reference: ChEMBL document CHEMBL4706508, “Discovery of first-in-class multi-target adenosine A receptor antagonists-carbonic anhydrase IX and XII inhibitors. 8-Amino-6-aryl-2-phenyl-1,2,4-triazolo [4,3-a]pyrazin-3-one derivatives as new potential antitumor agents” (Eur J Med Chem, 2020)
